Assay results: patent US20250304563A1, “ACTIVATORS OF EFFECTOR T CELLS” (Orum Therapeutics, Inc., priority 2022, published 2025)

How the values were obtained:
[1] = target: Cbl-b (36-427 aa truncated form, N-terminus Avi-tag) (Homo sapiens (Human), UniProt Q13191); experiment: Cbl-b binding: TR-FRET displacement of BODIPY-FL probe
Outline: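 IC50 from loss of terbium–BODIPY-FL TR-FRET signal as compounds compete off a fluorescent Cbl-b inhibitor probe (1 uM) for 1 h at RT. Protein: N-Avi-tagged human Cbl-b 36-427 on streptavidin-terbium, 20 mM HEPES pH 7.5 buffer.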

[2] = test system: Human primary T cells; experiment: T cell activation: secreted IL-2; assay type: cell-based; details: 48 hours, fold over background normalized to Compound 141A; for IL-2 1 nM: 1 nM compound; for IL-2 10 nM: 10 nM compound; for IL-2 100 nM: 100 nM compound
Outline: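 IL-2 values are fold over anti-CD3/CD28 background, normalized to a reference compound and sorted into ranges. They come from supernatants of human pan-T cells captured on anti-CD3-coated plates and exposed 48 h, 37° C., to duplicate compound dilutions, measured with cytometric beads.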

[3] = test system: Human primary T cells; experiment: T cell activation: secreted IFN-y; assay type: cell-based; details: 48 hours, fold over background normalized to Compound 141A; for IFN-y 1 nM: 1 nM compound; for IFN-y 10 nM: 10 nM compound
Outline: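 Values are binned ranges (A–D) of fold increase over anti-CD3/CD28 background, normalized to a reference compound, for IFN-γ in supernatants measured by bead array. Pan-T cells from donor PBMC or LeukoPaks were stimulated on anti-CD3-coated wells (10 μg/mL coating) in serum-free medium with compound for 48 h at 37 °C.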

[4] = test system: Human primary T cells; experiment: T cell activation: CD69 surface expression by flow cytometry; assay type: cell-based; details: fold over anti-CD3 stimulated background normalized to Compound 141A; for CD69 10 nM: 10 nM compound; for CD69 100 nM: 100 nM compound
Outline: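 Read-out is flow-cytometric CD69 surface staining, expressed as fold increase over anti-CD3-stimulated background and normalized to Compound 141A. Human pan T cells from PBMC or LeukoPaks were plated on OKT3-coated wells in serum-free XVivo-15. Compound dilutions were added for 48 h at 37° C, 5% CO2.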

[5] = test system: human peripheral blood pan-T cells; experiment: T cell activation by small molecule inhibitors of Cbl-b (biomarker flow cytometry); assay type: cell-based; details: 10 μM, 48 hours
Experimental: Cryopreserved human peripheral blood pan-T cells (StemCell, 70024) were defrosted and resuspended in Immunocult-XF T cell Expansion Medium (StemCell, 10981). Cells were plated at 8×10^5 cells per well in 24 well plates, in presence or absence of pre-coated anti-CD3 (OKT3) antibody (ThermoFisher, 16-0037-85). Pre-coating of plates was done by diluting anti-CD3 antibody to 10 μg/mL in PBS and adding 1 ml to each well. Plates were incubated at 4° C. overnight or at 37° C. for 2 hours and washed once with PBS before use. Dilution of each small molecule cbl-b inhibitor was added. Untreated cell was used as a control. Plates were incubated for 48 hours at 37° C. with 5% CO2. T cells were fixed and permeabilized with Intracellular Fixation & Permeabilization Buffer Set (ThermoFisher, 88-8824), and continuously stained with one of PE-conjugated antibody listed in Table 10. Stained T cells were then analyzed with by flow cytometry (ThermoFisher Attune NxT). The percent of positive cells of each treated group was normalized with untreated cell and sorted into bins as follows: fold over background values from 10 to 14.9: range “A;” values from 5.0 to 9.9: range “B;” values from 2.0 to 4.9: range “C;” and values from 0.1 to 1.9: range “D.” Only for Notch1, geometric mean was used.

[6] = +CD3 (pre-coated anti-CD3 OKT3)

Sequence of Cbl-b (36-427 aa truncated form, N-terminus Avi-tag) (Q13191 36-427): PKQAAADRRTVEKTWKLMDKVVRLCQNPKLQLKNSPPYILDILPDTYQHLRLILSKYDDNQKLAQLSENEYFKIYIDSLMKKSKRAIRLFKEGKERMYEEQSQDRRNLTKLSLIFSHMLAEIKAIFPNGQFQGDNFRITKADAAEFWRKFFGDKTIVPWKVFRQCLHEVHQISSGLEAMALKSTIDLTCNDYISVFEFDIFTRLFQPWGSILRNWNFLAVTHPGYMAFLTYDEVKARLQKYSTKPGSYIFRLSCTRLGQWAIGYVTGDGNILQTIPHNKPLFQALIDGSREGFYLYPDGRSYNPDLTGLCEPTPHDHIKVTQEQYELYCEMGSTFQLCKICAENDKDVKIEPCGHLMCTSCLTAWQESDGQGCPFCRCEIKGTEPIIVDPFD

| SMILES | IL-2 1 nM [2] | IL-2 10 nM [2] | IL-2 100 nM [2] | IFN-y 1 nM [3] | IFN-y 10 nM [3] | CD69 10 nM [4] | CD69 100 nM [4] | Notch 1, geometric mean normalized with untreated cell (fold over background) [5, 6] | pCD3zeta, percent of positive cells normalized with untreated cell (fold over background) [5, 6] | pHS1, percent of positive cells normalized with untreated cell (fold over background) [5, 6] | pLYN, percent of positive cells normalized with untreated cell (fold over background) [5, 6] | pPLCg1, percent of positive cells normalized with untreated cell (fold over background) [5, 6] | pPLCg2, percent of positive cells normalized with untreated cell (fold over background) [5, 6] | pZAP70, percent of positive cells normalized with untreated cell (fold over background) [5, 6] | Notch 1, geometric mean normalized with untreated cell (fold over background) ([5]; −CD3) | pCD3zeta, percent of positive cells normalized with untreated cell (fold over background) ([5]; −CD3) | pHS1, percent of positive cells normalized with untreated cell (fold over background) ([5]; −CD3) | pLYN, percent of positive cells normalized with untreated cell (fold over background) ([5]; −CD3) | pPLCg1, percent of positive cells normalized with untreated cell (fold over background) ([5]; −CD3) | pPLCg2, percent of positive cells normalized with untreated cell (fold over background) ([5]; −CD3) | also measured |
| --- | --- | --- | --- | --- | --- | --- | --- | --- | --- | --- | --- | --- | --- | --- | --- | --- | --- | --- | --- | --- | --- |
| CCNc1cc(C2(Cc3nncn3C)COC2)cc(N2Cc3c(SC)cc(CN4CCC[C@H](C)C4)cc3C2=O)n1 [Compound 126, 2-[6-(ethylamino)-4-{3-[(4-methyl-1,2,4-triazol-3-yl)methyl]oxetan-3-yl}pyridin-2-yl]-6-{[(3S)-3-methylpiperidin-1-yl]methyl}-4-(methylsulfanyl)-3H-isoindol-1-one] | C (values between 0.10 and 0.30: range “C”) | B (values between 0.31 and 0.79: range “B”) | A (between 0.80 and 1.40: range “A”) | B (values between 0.31 and 1.00: range “B;”) | B (values between 0.31 and 1.00: range “B;”) | A (values between 0.81 and 1.10: range “A”) | A (values between 0.81 and 1.10: range “A”) | C (values from 2.0 to 4.9: range “C;”) | D (values from 0.1 to 1.9: range “D.”) | C (values from 2.0 to 4.9: range “C;”) | D (values from 0.1 to 1.9: range “D.”) | C (values from 2.0 to 4.9: range “C;”) | D (values from 0.1 to 1.9: range “D.”) | C (values from 2.0 to 4.9: range “C;”) | D (values from 0.1 to 1.9: range “D.”) | C (values from 2.0 to 4.9: range “C;”) | B (values from 5.0 to 9.9: range “B;”) | C (values from 2.0 to 4.9: range “C;”) | C (values from 2.0 to 4.9: range “C;”) | B (values from 5.0 to 9.9: range “B;”) | IC50 [1]: 1 to 5 nM; IFN-y 100 nM ([3]; 100 nM compound): A (fold over background between 1.10 and 2.00: range “A”); pZAP70, percent of positive cells normalized with untreated cell (fold over background) ([5]; −CD3): C (values from 2.0 to 4.9: range “C;”) |
| CC1CC(c2cc(NCCC#N)nc(N3Cc4c(cc(CN5CCC[C@H](C)C5)cc4C(F)(F)F)C3=O)c2)(c2nncn2C)C1 (stereo partly drawn) [Compound 192, 3-{[6-(6-{[(3S)-3-methylpiperidin-1-yl]methyl}-1-oxo-4-(trifluoromethyl)-3H-isoindol-2-yl)-4-[(1r,3s)-3-methyl-1-(4-methyl-1,2,4-triazol-3-yl)cyclobutyl]pyridin-2-yl]amino}propanenitrile] | D (values between 0.01 and 0.09: range “D.”) | B (values between 0.31 and 0.79: range “B”) | X (fold over background values between 1.41 and 1.8: range “X”) | B (values between 0.31 and 1.00: range “B;”) | B (values between 0.31 and 1.00: range “B;”) | A (values between 0.81 and 1.10: range “A”) | X (fold over background values between 1.11 and 1.6: range “X”) | C (values from 2.0 to 4.9: range “C;”) | D (values from 0.1 to 1.9: range “D.”) | C (values from 2.0 to 4.9: range “C;”) | D (values from 0.1 to 1.9: range “D.”) | C (values from 2.0 to 4.9: range “C;”) | D (values from 0.1 to 1.9: range “D.”) | C (values from 2.0 to 4.9: range “C;”) | D (values from 0.1 to 1.9: range “D.”) | C (values from 2.0 to 4.9: range “C;”) | A (fold over background values from 10 to 14.9: range “A;”) | C (values from 2.0 to 4.9: range “C;”) | B (values from 5.0 to 9.9: range “B;”) | A (fold over background values from 10 to 14.9: range “A;”) | CD69 1 nM ([4]; 1 nM compound): C (values between 0.30 and 0.60: range “C”); pZAP70, percent of positive cells normalized with untreated cell (fold over background) ([5]; −CD3): C (values from 2.0 to 4.9: range “C;”) |
